In patent US20230085307A1, “PYRIDAZINONE COMPOUND AND HERBICIDE” (NISSAN CHEMICAL CORPORATION, priority 2019, published 2023):

What was measured:
Italian ryegrass [1] = assay: Test Example 5: herbicidal effect by foliage application, plastic box (Table 20, symbol K); format: in vivo, Italian ryegrass (Lolium multiflorum); settings: 320 g/ha, foliage application after 14-day growth, evaluated three weeks after application
In short: (§1)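 Foliar spray test: emulsion formulation diluted in water to a set application rate, sprayed onto 14-day-old plants raised in diluvial soil at 25° C to 30° C under glass. Both herbicidal effect and crop effect rated visually three weeks later.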

lambsquarters [2] = assay: Test Example 5: herbicidal effect by foliage application, plastic box (Table 20, symbol O); format: in vivo, lambsquarters (Chenopodium album); settings: 320 g/ha, foliage application after 14-day growth, evaluated three weeks after application
In short: as §1

blackgrass [3] = assay: Test Example 5: herbicidal effect by foliage application, plastic box (Table 20, symbol J); format: in vivo, blackgrass (Alopecurus myosuroides); settings: 320 g/ha, foliage application after 14-day growth, evaluated three weeks after application
In short: as §1

persian speedwell [4] = assay: Test Example 4: herbicidal effect by soil treatment (Table 19, symbol R); format: in vivo, Persian speedwell (Veronica persica); settings: amount of applied herbicide 320 g/ha
In short: (§2)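 Step 1: sow seeds in sterilized diluvial soil, cover ~1.5 cm. Step 2: spray diluted emulsion onto soil surface at predetermined rate. Step 3: greenhouse, 25–30° C, three weeks. Step 4: grade effect on each plant by earlier criteria.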

Chinese sprangletop = assay: Test Example 3: herbicidal effect by foliage application, Wagner pot (Table 18, symbol D); format: in vivo, chinese sprangletop (Leptochloa chinensis); settings: 320 g/ha
In short: (§3)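 Plants were sown in alluvial soil held under 0.1–0.5 cm standing water and grown 14 days in a greenhouse at 25–30 °C. An emulsifiable formulation, water-diluted to the set dose, was then sprayed onto the foliage, and effects were scored three weeks later using previously defined criteria.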

rice flat sedge = assay: Test Example 3: herbicidal effect by foliage application, Wagner pot (Table 18, symbol E); format: in vivo, rice flat sedge (Cyperus iria); settings: 320 g/ha
In short: as §3

velvetleaf [5] = assay: Test Example 4: herbicidal effect by soil treatment (Table 19, symbol M); format: in vivo, velvetleaf (Abutilon theophrasti); settings: amount of applied herbicide 320 g/ha
In short: as §2

barnyard grass [6] = assay: Test Example 3: herbicidal effect by foliage application, Wagner pot (Table 18, symbol H); format: in vivo, barnyard grass (Echinochloa crus-galli); settings: 320 g/ha
In short: as §3

chickweed [7] = assay: Test Example 5: herbicidal effect by foliage application, plastic box (Table 20, symbol P); format: in vivo, common chickweed (Stellaria media); settings: 320 g/ha, foliage application after 14-day growth, evaluated three weeks after application
In short: as §1

redroot pigweed [8] = assay: Test Example 4: herbicidal effect by soil treatment (Table 19, symbol N); format: in vivo, redroot pigweed (Amaranthus retroflexus); settings: amount of applied herbicide 320 g/ha
In short: as §2

green foxtail [9] = assay: Test Example 5: herbicidal effect by foliage application, plastic box (Table 20, symbol G); format: in vivo, green foxtail (Setaria viridis); settings: 320 g/ha, foliage application after 14-day growth, evaluated three weeks after application
In short: as §1

persian speedwell [10] = assay: Test Example 5: herbicidal effect by foliage application, plastic box (Table 20, symbol R); format: in vivo, Persian speedwell (Veronica persica); settings: 320 g/ha, foliage application after 14-day growth, evaluated three weeks after application
In short: as §1

chickweed [11] = assay: Test Example 4: herbicidal effect by soil treatment (Table 19, symbol P); format: in vivo, common chickweed (Stellaria media); settings: amount of applied herbicide 320 g/ha
In short: as §2

wild oat [12] = assay: Test Example 4: herbicidal effect by soil treatment (Table 19, symbol I); format: in vivo, wild oat (Avena fatua); settings: amount of applied herbicide 320 g/ha
In short: as §2

velvetleaf [13] = assay: Test Example 5: herbicidal effect by foliage application, plastic box (Table 20, symbol M); format: in vivo, velvetleaf (Abutilon theophrasti); settings: 320 g/ha, foliage application after 14-day growth, evaluated three weeks after application
In short: as §1

lambsquarters [14] = assay: Test Example 4: herbicidal effect by soil treatment (Table 19, symbol O); format: in vivo, lambsquarters (Chenopodium album); settings: amount of applied herbicide 320 g/ha
In short: as §2

wild oat [15] = assay: Test Example 5: herbicidal effect by foliage application, plastic box (Table 20, symbol I); format: in vivo, wild oat (Avena fatua); settings: 320 g/ha, foliage application after 14-day growth, evaluated three weeks after application
In short: as §1

southern crabgrass [16] = assay: Test Example 4: herbicidal effect by soil treatment (Table 19, symbol F); format: in vivo, southern crabgrass (Digitaria ciliaris); settings: amount of applied herbicide 320 g/ha
In short: as §2

barnyard grass [17] = assay: Test Example 4: herbicidal effect by soil treatment (Table 19, symbol H); format: in vivo, barnyard grass (Echinochloa crus-galli); settings: amount of applied herbicide 320 g/ha
In short: as §2

southern crabgrass [18] = assay: Test Example 5: herbicidal effect by foliage application, plastic box (Table 20, symbol F); format: in vivo, southern crabgrass (Digitaria ciliaris); settings: 320 g/ha, foliage application after 14-day growth, evaluated three weeks after application
In short: as §1

blackgrass [19] = assay: Test Example 4: herbicidal effect by soil treatment (Table 19, symbol J); format: in vivo, blackgrass (Alopecurus myosuroides); settings: amount of applied herbicide 320 g/ha
In short: as §2

barnyard grass [20] = assay: Test Example 5: herbicidal effect by foliage application, plastic box (Table 20, symbol H); format: in vivo, barnyard grass (Echinochloa crus-galli); settings: 320 g/ha, foliage application after 14-day growth, evaluated three weeks after application
In short: as §1

redroot pigweed [21] = assay: Test Example 5: herbicidal effect by foliage application, plastic box (Table 20, symbol N); format: in vivo, redroot pigweed (Amaranthus retroflexus); settings: 320 g/ha, foliage application after 14-day growth, evaluated three weeks after application
In short: as §1

Italian ryegrass [22] = assay: Test Example 4: herbicidal effect by soil treatment (Table 19, symbol K); format: in vivo, Italian ryegrass (Lolium multiflorum); settings: amount of applied herbicide 320 g/ha
In short: as §2

windgrass [23] = assay: Test Example 5: herbicidal effect by foliage application, plastic box (Table 20, symbol L); format: in vivo, windgrass (Apera spica-venti); settings: 320 g/ha, foliage application after 14-day growth, evaluated three weeks after application
In short: as §1

green foxtail [24] = assay: Test Example 4: herbicidal effect by soil treatment (Table 19, symbol G); format: in vivo, green foxtail (Setaria viridis); settings: amount of applied herbicide 320 g/ha
In short: as §2

windgrass [25] = assay: Test Example 4: herbicidal effect by soil treatment (Table 19, symbol L); format: in vivo, windgrass (Apera spica-venti); settings: amount of applied herbicide 320 g/ha
In short: as §2

## CCCC(=O)Oc1c(C)nn(C)c(=O)c1-c1c(-c2ccc(F)cc2OC)sc2c(F)cccc12 [4-012]
Italian ryegrass [1]
  herbicidal effect on K: Italian ryegrass (evaluation grade 0-5): 3 (Herbicidal rate of 40% or more and less than 70%)
Lambsquarters [2]
  herbicidal effect on O: lambsquarters (evaluation grade 0-5): 2 (Herbicidal rate of 20% or more and less than 40%)
Blackgrass [3]
  herbicidal effect on J: blackgrass (evaluation grade 0-5): 0 (Herbicidal rate of 5% or less (almost no effect))
Persian speedwell [4]
  Herbicidal effect by soil treatment, R: persian speedwell: 0 (Herbicidal rate of 5% or less (almost no effect))
Chinese sprangletop
  herbicidal effect on Chinese sprangletop (D): 3 (Herbicidal rate of 40% or more and less than 70%)
Rice flat sedge
  herbicidal effect on rice flat sedge (E): 5 (Herbicidal rate of 90% or more (almost completely withered))
Velvetleaf [5]
  Herbicidal effect by soil treatment, M: velvetleaf: 1 (Herbicidal rate of 5% or more and less than 20%)
Barnyard grass [6]
  herbicidal effect on barnyard grass (H): 5 (Herbicidal rate of 90% or more (almost completely withered))
Chickweed [7]
  herbicidal effect on P: chickweed (evaluation grade 0-5): 5 (Herbicidal rate of 90% or more (almost completely withered))
Redroot pigweed [8]
  Herbicidal effect by soil treatment, N: redroot pigweed: 3 (Herbicidal rate of 40% or more and less than 70%)
Green foxtail [9]
  herbicidal effect on G: green foxtail (evaluation grade 0-5): 5 (Herbicidal rate of 90% or more (almost completely withered))
Persian speedwell [10]
  herbicidal effect on R: persian speedwell (evaluation grade 0-5): 4 (Herbicidal rate of 70% or more and less than 90%)
Chickweed [11]
  Herbicidal effect by soil treatment, P: chickweed: 0 (Herbicidal rate of 5% or less (almost no effect))
Wild oat [12]
  Herbicidal effect by soil treatment, I: wild oat: 0 (Herbicidal rate of 5% or less (almost no effect))
Velvetleaf [13]
  herbicidal effect on M: velvetleaf (evaluation grade 0-5): 3 (Herbicidal rate of 40% or more and less than 70%)
Lambsquarters [14]
  Herbicidal effect by soil treatment, O: lambsquarters: 1 (Herbicidal rate of 5% or more and less than 20%)
Wild oat [15]
  herbicidal effect on I: wild oat (evaluation grade 0-5): 0 (Herbicidal rate of 5% or less (almost no effect))
Southern crabgrass [16]
  Herbicidal effect by soil treatment, F: southern crabgrass: 0 (Herbicidal rate of 5% or less (almost no effect))
Barnyard grass [17]
  Herbicidal effect by soil treatment, H: barnyard grass: 0 (Herbicidal rate of 5% or less (almost no effect))
Southern crabgrass [18]
  herbicidal effect on F: southern crabgrass (evaluation grade 0-5): 2 (Herbicidal rate of 20% or more and less than 40%)
Blackgrass [19]
  Herbicidal effect by soil treatment, J: blackgrass: 0 (Herbicidal rate of 5% or less (almost no effect))
Barnyard grass [20]
  herbicidal effect on H: barnyard grass (evaluation grade 0-5): 3 (Herbicidal rate of 40% or more and less than 70%)
Redroot pigweed [21]
  herbicidal effect on N: redroot pigweed (evaluation grade 0-5): 4 (Herbicidal rate of 70% or more and less than 90%)
Italian ryegrass [22]
  Herbicidal effect by soil treatment, K: Italian ryegrass: 0 (Herbicidal rate of 5% or less (almost no effect))
Windgrass [23]
  herbicidal effect on L: windgrass (evaluation grade 0-5): 1 (Herbicidal rate of 5% or more and less than 20%)
Green foxtail [24]
  Herbicidal effect by soil treatment, G: green foxtail: 0 (Herbicidal rate of 5% or less (almost no effect))
Windgrass [25]
  Herbicidal effect by soil treatment, L: windgrass: 0 (Herbicidal rate of 5% or less (almost no effect))
